This test concerns the target human FKBP12 (Homo sapiens, UniProt P62942). Conditions: Measurement 3; first solutions of two or three samples, one of them 100 μM FKBP12, others HSA.

Chain of human FKBP12 (P62942 whole entry): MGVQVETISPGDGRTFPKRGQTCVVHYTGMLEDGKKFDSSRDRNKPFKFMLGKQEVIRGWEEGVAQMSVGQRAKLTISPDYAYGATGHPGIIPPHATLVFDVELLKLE
From the text: An apparatus for analyzing interactions in this example includes a column TSK super SW2000 for size exclusion chromatography (column size: 1.0 ID×10 mm, 1.0 ID×30 mm or 1.0 ID×100 mm, manufactured by Tosoh Corporation) for a separation channel 1. The apparatus for analyzing interactions also includes an auto injector HTC-PAL (manufactured by CTC Analytics AG) for a container section 3, and a LC pump (Agilent 1100, manufactured by Yokogawa) for an introduction device 4. The apparatus for analyzing interactions also includes an ion trap mass spectrometer LCQ deca XP (ThermoQuest) for a detection device 5.
The auto injector HTC-PAL (CTC Analytics AG) includes a sample loop of 5 μL or 10 μL, a syringe of 10 μL, and sample trays with a cooling unit. A first solution was introduced by 50 μL into a 2 mL screw vial with a conical insert of 100 μL inserted therein. A screw cap with a septum was put on the vial and the vial was placed in a 54 vial rack and the rack was set in one of the sample trays. A second solution was introduced by 40 μL into each well of a 384 well-microplate, and the microplate was covered with an aluminum seal and set in another sample tray. The sample trays were set at the temperature of 10 degrees C. […]

Consider `CC[C@@H]1/C=C(\C)C[C@H](C)C[C@H](OC)[C@H]2O[C@@](O)(C(=O)C(=O)N3CCCC[C@H]3C(=O)O[C@H](/C(C)=C/[C@@H]3CC[C@@H](O)[C@H](OC)C3)[C@H](C)[C@@H](O)CC1=O)[C@H](C)C[C@@H]2OC` [Ascomycin], for which the “interaction with FKBP12 (peaks in mass chromatogram of the compound)” value was “interaction between Ascomycin and FKBP12 is able to be detected”.
